# Columns and labels:
# Assay in all cases: radiometric filter-binding kinase assay, Kinase HotSpot
# Details in all cases: compound 0.5 µM; ATP 10 µM
# FES (human) = FES (human) (UniProt P07332)
# MAPK13 (human) = MAPK13 (human) (UniProt O15264)
# CSF1R (human) = CSF1R (human) (UniProt P07333)
# MAP3K2 (human) = MAP3K2 (human) (UniProt Q9Y2U5)
# EPHA4 (human) = EPHA4 (human) (UniProt P54764)
# PLK1 (human) = PLK1 (human) (UniProt P53350)
# [1] = system: MAP2K6 (human), P52564 [S207E/T211E]
# HIPK1 (human) = HIPK1 (human) (UniProt Q86Z02)
# LTK (human) = LTK (human) (UniProt P29376)
# MKNK2 (human) = MKNK2 (human) (UniProt Q9HBH9)
# MELK (human) = MELK (human) (UniProt Q14680)
# EPHA2 (human) = EPHA2 (human) (UniProt P29317)
# PRKCI (human) = PRKCI (human) (UniProt P41743)
# MUSK (human) = MUSK (human) (UniProt O15146)
# MERTK (human) = MERTK (human) (UniProt Q12866)
# MERTK (human), sequence (Q12866 whole entry, looked up): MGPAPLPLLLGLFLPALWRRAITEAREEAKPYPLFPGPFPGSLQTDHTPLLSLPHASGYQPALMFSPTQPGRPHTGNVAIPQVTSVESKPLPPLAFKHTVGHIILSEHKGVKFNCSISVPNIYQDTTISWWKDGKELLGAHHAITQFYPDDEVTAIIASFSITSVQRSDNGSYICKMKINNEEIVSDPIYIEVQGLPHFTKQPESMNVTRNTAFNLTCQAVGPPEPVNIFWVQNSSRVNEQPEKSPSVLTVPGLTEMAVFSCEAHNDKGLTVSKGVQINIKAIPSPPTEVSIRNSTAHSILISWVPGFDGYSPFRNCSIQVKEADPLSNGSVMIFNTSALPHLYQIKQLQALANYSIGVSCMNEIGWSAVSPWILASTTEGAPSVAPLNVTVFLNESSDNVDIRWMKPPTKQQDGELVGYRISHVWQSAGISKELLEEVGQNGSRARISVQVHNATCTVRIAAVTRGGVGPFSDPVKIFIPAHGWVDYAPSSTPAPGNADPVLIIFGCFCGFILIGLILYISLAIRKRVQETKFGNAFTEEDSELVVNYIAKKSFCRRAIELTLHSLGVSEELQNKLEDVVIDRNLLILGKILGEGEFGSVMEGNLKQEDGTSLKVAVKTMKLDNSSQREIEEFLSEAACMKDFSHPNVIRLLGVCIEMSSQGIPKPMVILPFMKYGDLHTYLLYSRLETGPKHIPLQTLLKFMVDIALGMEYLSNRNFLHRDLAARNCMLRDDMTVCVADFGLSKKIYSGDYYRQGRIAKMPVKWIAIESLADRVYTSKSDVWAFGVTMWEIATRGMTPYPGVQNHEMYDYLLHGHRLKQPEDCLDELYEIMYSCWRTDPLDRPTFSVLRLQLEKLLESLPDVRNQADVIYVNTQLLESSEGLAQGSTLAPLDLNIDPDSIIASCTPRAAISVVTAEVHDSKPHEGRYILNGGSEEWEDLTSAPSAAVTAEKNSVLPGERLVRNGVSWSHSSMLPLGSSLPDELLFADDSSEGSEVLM
# NUAK1 (human) = NUAK1 (human) (UniProt O60285)
# CAMK2B (human) = CAMK2B (human) (UniProt Q13554)
# CLK3 (human) = CLK3 (human) (UniProt P49761)
# CLK3 (human), sequence (P49761 whole entry, looked up): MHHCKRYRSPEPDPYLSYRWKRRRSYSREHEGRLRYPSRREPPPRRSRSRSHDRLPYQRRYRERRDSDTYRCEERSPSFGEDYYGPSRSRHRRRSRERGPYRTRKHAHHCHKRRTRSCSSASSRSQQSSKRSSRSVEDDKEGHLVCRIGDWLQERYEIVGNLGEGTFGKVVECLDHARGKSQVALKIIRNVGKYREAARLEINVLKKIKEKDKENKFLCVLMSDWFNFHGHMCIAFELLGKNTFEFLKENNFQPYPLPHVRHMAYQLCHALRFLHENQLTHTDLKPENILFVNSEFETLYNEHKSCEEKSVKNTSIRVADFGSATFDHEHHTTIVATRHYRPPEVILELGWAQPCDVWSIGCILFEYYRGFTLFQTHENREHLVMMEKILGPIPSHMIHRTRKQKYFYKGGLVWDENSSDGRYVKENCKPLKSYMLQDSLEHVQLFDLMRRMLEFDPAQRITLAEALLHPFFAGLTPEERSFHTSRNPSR
# PRKCB1 (human) = PRKCB1 (human) (UniProt P05771)
# TGFBR2 (human) = TGFBR2 (human) (UniProt P37173)
# TGFBR2 (human), sequence (P37173 whole entry, looked up): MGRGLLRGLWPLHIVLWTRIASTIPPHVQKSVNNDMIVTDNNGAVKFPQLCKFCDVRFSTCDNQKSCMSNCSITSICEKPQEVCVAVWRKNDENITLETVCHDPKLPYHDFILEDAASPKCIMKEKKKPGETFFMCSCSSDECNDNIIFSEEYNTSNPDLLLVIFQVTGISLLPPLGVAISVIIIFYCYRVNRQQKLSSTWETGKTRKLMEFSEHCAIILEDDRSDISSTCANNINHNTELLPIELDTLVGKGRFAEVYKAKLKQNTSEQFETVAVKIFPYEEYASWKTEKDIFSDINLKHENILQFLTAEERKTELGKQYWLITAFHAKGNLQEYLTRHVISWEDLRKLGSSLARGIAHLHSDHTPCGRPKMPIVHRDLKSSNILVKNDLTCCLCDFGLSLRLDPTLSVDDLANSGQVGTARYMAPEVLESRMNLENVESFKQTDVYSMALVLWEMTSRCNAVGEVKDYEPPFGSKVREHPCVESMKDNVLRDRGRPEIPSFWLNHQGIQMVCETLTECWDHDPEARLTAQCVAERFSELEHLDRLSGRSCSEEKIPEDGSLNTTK
# INSRR (human) = INSRR (human) (UniProt P14616)
# PHKG1 (human) = PHKG1 (human) (UniProt Q16816)
# DDR2 (human) = DDR2 (human) (UniProt Q16832)
# HCK (human) = HCK (human) (UniProt P08631)
# DYRK4 (human) = DYRK4 (human) (UniProt Q9NR20)
# PLK3 (human) = PLK3 (human) (UniProt Q9H4B4)
# PLK3 (human), sequence (Q9H4B4 whole entry, looked up): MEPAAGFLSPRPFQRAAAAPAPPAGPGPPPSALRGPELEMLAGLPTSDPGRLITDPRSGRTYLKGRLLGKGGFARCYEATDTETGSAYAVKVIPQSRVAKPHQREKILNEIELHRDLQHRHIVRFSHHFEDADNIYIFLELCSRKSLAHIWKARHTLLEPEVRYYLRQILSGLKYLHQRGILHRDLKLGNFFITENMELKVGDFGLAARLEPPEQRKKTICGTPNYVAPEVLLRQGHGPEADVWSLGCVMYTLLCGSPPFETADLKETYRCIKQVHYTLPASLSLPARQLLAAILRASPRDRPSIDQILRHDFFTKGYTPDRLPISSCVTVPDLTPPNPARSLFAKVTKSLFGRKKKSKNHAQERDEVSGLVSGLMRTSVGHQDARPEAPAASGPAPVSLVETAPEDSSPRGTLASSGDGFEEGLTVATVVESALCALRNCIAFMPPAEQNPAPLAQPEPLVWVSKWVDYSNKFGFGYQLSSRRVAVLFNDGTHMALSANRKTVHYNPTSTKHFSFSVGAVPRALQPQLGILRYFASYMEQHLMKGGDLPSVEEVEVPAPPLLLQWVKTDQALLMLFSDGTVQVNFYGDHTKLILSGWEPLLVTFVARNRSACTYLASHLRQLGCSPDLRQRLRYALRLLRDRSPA
# PAK2 (human) = PAK2 (human) (UniProt Q13177)
# PAK2 (human), sequence (Q13177 whole entry, looked up): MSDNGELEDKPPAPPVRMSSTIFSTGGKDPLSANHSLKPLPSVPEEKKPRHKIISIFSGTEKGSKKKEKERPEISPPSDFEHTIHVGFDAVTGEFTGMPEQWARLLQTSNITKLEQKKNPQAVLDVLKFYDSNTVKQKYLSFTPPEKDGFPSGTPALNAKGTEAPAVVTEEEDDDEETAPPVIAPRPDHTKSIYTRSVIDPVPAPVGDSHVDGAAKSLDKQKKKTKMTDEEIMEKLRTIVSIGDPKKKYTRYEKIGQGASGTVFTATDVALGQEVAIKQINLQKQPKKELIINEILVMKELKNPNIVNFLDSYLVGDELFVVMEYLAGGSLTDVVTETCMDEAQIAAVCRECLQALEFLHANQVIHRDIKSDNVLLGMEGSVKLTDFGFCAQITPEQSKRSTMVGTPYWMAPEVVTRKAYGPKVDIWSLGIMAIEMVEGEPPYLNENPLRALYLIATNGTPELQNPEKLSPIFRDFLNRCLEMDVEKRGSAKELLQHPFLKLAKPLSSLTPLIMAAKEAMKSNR
# EPHA8 (human) = EPHA8 (human) (UniProt P29322)
# CHEK2 (human) = CHEK2 (human) (UniProt O96017)
# PRKG2 (human) = PRKG2 (human) (UniProt Q13237)
# WNK3 (human) = WNK3 (human) (UniProt Q9BYP7)
# GSK3B (human) = GSK3B (human) (UniProt P49841)
# ROS1 (human) = ROS1 (human) (UniProt P08922)
# PRKX (human) = PRKX (human) (UniProt P51817)
# MAP4K4 (human) = MAP4K4 (human) (UniProt O95819)
# MAP4K4 (human), sequence (O95819 whole entry, looked up): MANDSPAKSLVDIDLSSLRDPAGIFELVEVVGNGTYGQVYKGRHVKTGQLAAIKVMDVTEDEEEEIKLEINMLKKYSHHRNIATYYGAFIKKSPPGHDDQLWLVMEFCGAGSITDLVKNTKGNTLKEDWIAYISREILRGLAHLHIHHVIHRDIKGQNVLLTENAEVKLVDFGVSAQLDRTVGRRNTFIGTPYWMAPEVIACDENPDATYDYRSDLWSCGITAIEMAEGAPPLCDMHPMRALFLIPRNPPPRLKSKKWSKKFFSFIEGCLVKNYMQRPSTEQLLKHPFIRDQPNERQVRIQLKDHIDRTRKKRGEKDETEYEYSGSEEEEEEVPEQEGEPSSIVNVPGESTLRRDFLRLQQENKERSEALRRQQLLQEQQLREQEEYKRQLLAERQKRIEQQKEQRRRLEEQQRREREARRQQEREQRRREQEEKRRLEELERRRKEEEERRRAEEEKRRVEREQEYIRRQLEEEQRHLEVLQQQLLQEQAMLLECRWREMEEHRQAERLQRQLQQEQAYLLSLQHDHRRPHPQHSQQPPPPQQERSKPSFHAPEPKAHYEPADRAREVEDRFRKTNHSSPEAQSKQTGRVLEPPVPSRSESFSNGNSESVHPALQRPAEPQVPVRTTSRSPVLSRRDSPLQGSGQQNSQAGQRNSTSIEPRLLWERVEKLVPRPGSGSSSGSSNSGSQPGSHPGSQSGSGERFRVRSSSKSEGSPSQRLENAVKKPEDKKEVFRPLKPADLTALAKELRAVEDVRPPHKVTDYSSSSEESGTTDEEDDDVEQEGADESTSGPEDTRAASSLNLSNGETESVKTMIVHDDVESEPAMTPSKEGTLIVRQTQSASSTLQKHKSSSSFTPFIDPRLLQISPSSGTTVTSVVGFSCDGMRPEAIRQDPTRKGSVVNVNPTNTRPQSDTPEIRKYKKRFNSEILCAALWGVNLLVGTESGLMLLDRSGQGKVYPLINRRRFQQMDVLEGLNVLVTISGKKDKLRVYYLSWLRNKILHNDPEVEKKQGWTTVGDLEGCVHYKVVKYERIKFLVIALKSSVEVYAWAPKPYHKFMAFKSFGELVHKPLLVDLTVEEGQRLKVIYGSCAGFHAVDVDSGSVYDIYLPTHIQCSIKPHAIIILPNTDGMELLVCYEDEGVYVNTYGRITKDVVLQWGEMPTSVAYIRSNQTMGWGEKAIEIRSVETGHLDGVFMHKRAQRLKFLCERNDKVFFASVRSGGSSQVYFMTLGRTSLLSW
# FGFR4 (human) = FGFR4 (human) (UniProt P22455)
# MINK1 (human) = MINK1 (human) (UniProt Q8N4C8)
# STK10 (human) = STK10 (human) (UniProt O94804)
# SRMS (human) = SRMS (human) (UniProt Q9H3Y6)
# CDK1 CCNA2 (human) = CDK1 CCNA2 (human) (UniProt P06493+P20248)
# PIM2 (human) = PIM2 (human) (UniProt Q9P1W9)
# ACVR1 (human) = ACVR1 (human) (UniProt Q04771)
# MAPK13 (human), sequence (O15264 whole entry, looked up): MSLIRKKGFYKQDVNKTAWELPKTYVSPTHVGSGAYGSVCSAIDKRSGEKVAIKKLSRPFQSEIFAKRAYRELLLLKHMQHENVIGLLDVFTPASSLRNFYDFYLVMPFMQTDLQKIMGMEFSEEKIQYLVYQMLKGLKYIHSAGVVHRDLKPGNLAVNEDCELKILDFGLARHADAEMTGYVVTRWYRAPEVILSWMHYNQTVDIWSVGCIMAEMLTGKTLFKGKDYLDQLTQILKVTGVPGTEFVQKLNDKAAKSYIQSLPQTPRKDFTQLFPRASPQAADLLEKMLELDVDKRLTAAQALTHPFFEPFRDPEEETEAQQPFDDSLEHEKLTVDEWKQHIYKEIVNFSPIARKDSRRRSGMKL
compound,measurement,setting,value
Cc1cccc(-c2nc(C(C)(C)C)[nH]c2-c2ccc3c(c2)OCO3)n1,residual activity,FES (human),108%
same,residual activity,MAPK13 (human),107%
same,residual activity,CSF1R (human),102%
same,residual activity,MAP3K2 (human),99.9%
same,residual activity,EPHA4 (human),97.3%
same,residual activity,PLK1 (human),105%
same,residual activity,[1],105%
same,residual activity,HIPK1 (human),101%
same,residual activity,LTK (human),99.2%
same,residual activity,MKNK2 (human),87.8%
same,residual activity,MELK (human),92.7%
same,residual activity,EPHA2 (human),99.2%
same,residual activity,PRKCI (human),92.8%
same,residual activity,MUSK (human),99.1%
same,residual activity,MERTK (human),82%
same,residual activity,NUAK1 (human),97.3%
same,residual activity,CAMK2B (human),96.2%
same,residual activity,CLK3 (human),104%
same,residual activity,PRKCB1 (human),82.5%
same,residual activity,TGFBR2 (human),105%
same,residual activity,INSRR (human),95.1%
same,residual activity,PHKG1 (human),87.6%
same,residual activity,DDR2 (human),98.3%
same,residual activity,HCK (human),90.7%
same,residual activity,DYRK4 (human),89.7%
same,residual activity,PLK3 (human),95.6%
same,residual activity,PAK2 (human),72.4%
same,residual activity,EPHA8 (human),89.9%
same,residual activity,CHEK2 (human),96.4%
same,residual activity,PRKG2 (human),95.9%
same,residual activity,WNK3 (human),94.1%
same,residual activity,GSK3B (human),96.8%
same,residual activity,ROS1 (human),101%
same,residual activity,PRKX (human),95%
same,residual activity,MAP4K4 (human),86.9%
same,residual activity,FGFR4 (human),73.8%
same,residual activity,MINK1 (human),98.4%
same,residual activity,STK10 (human),94.5%
same,residual activity,SRMS (human),102%
same,residual activity,CDK1 CCNA2 (human),96.7%
same,residual activity,PIM2 (human),99.7%
same,residual activity,ACVR1 (human),96.4%
COc1ccc(S(=O)(=O)N(CCO)c2ccccc2CN(C)C/C=C/c2ccc(Cl)cc2)cc1,residual activity,FES (human),96.3%
same,residual activity,MAPK13 (human),102%
same,residual activity,CSF1R (human),103%
same,residual activity,MAP3K2 (human),95.3%
same,residual activity,EPHA4 (human),99.2%
same,residual activity,PLK1 (human),98.8%
same,residual activity,[1],108%
same,residual activity,HIPK1 (human),106%
same,residual activity,LTK (human),97.9%
same,residual activity,MKNK2 (human),102%
same,residual activity,MELK (human),99.4%
same,residual activity,EPHA2 (human),104%
same,residual activity,PRKCI (human),97.5%
same,residual activity,MUSK (human),94.7%
same,residual activity,MERTK (human),97%
same,residual activity,NUAK1 (human),96.5%
same,residual activity,CAMK2B (human),100%
same,residual activity,CLK3 (human),100%
same,residual activity,PRKCB1 (human),97.7%
same,residual activity,TGFBR2 (human),97.2%
same,residual activity,INSRR (human),97%
same,residual activity,PHKG1 (human),95.4%
same,residual activity,DDR2 (human),96.8%
same,residual activity,HCK (human),97.8%
same,residual activity,DYRK4 (human),99.6%
same,residual activity,PLK3 (human),99.4%
same,residual activity,PAK2 (human),101%
same,residual activity,EPHA8 (human),100%
same,residual activity,CHEK2 (human),101%
same,residual activity,PRKG2 (human),104%
same,residual activity,WNK3 (human),99.4%
same,residual activity,GSK3B (human),102%
same,residual activity,ROS1 (human),95.4%
same,residual activity,PRKX (human),104%
same,residual activity,MAP4K4 (human),97.6%
same,residual activity,FGFR4 (human),98.3%
same,residual activity,MINK1 (human),98.1%
same,residual activity,STK10 (human),99.4%
same,residual activity,SRMS (human),101%
same,residual activity,CDK1 CCNA2 (human),96.5%
same,residual activity,PIM2 (human),99.7%
same,residual activity,ACVR1 (human),90.6%
CC(C)(C)c1cc(C=C(C#N)C#N)cc(Br)c1O,residual activity,FES (human),105%
same,residual activity,MAPK13 (human),98.5%
same,residual activity,CSF1R (human),96.8%
same,residual activity,MAP3K2 (human),93.7%
same,residual activity,EPHA4 (human),94.7%
same,residual activity,PLK1 (human),92.3%
same,residual activity,[1],107%
same,residual activity,HIPK1 (human),104%
same,residual activity,LTK (human),96.5%
same,residual activity,MKNK2 (human),100%
same,residual activity,MELK (human),91.6%
same,residual activity,EPHA2 (human),105%
same,residual activity,PRKCI (human),100%
same,residual activity,MUSK (human),103%
same,residual activity,MERTK (human),97.3%
same,residual activity,NUAK1 (human),95.4%
same,residual activity,CAMK2B (human),99.3%
same,residual activity,CLK3 (human),122%
same,residual activity,PRKCB1 (human),102%
same,residual activity,TGFBR2 (human),93.8%
same,residual activity,INSRR (human),103%
same,residual activity,PHKG1 (human),96.7%
same,residual activity,DDR2 (human),105%
same,residual activity,HCK (human),66.1%
same,residual activity,DYRK4 (human),98.2%
same,residual activity,PLK3 (human),94.6%
same,residual activity,PAK2 (human),96.5%
same,residual activity,EPHA8 (human),100%
same,residual activity,CHEK2 (human),104%
same,residual activity,PRKG2 (human),87.6%
same,residual activity,WNK3 (human),106%
same,residual activity,GSK3B (human),107%
same,residual activity,ROS1 (human),93.2%
same,residual activity,PRKX (human),102%
same,residual activity,MAP4K4 (human),96.2%
same,residual activity,FGFR4 (human),98%
same,residual activity,MINK1 (human),111%
same,residual activity,STK10 (human),95.4%
same,residual activity,SRMS (human),98.4%
same,residual activity,CDK1 CCNA2 (human),87.8%
same,residual activity,PIM2 (human),115%
same,residual activity,ACVR1 (human),102%
O=C(c1cc2cc(O)ccc2[nH]1)c1cc2cc(O)ccc2[nH]1,residual activity,FES (human),95.3%
same,residual activity,MAPK13 (human),108%
same,residual activity,CSF1R (human),97.7%
same,residual activity,MAP3K2 (human),102%
same,residual activity,EPHA4 (human),109%
same,residual activity,PLK1 (human),101%
same,residual activity,[1],93.6%
same,residual activity,HIPK1 (human),94.3%
same,residual activity,LTK (human),91.6%
same,residual activity,MKNK2 (human),46.8%
same,residual activity,MELK (human),49.2%
same,residual activity,EPHA2 (human),101%
same,residual activity,PRKCI (human),98.4%
same,residual activity,MUSK (human),55.1%
same,residual activity,MERTK (human),81.8%
same,residual activity,NUAK1 (human),69.2%
same,residual activity,CAMK2B (human),93.4%
same,residual activity,CLK3 (human),24.8%
same,residual activity,PRKCB1 (human),90.4%
same,residual activity,TGFBR2 (human),123%
same,residual activity,INSRR (human),97.1%
same,residual activity,PHKG1 (human),72.1%
same,residual activity,DDR2 (human),95.7%
same,residual activity,HCK (human),51.2%
same,residual activity,DYRK4 (human),99.7%
same,residual activity,PLK3 (human),101%
same,residual activity,PAK2 (human),97%
same,residual activity,EPHA8 (human),92.9%
same,residual activity,CHEK2 (human),80.1%
same,residual activity,PRKG2 (human),80.6%
same,residual activity,WNK3 (human),74.6%
same,residual activity,GSK3B (human),78.7%
same,residual activity,ROS1 (human),105%
same,residual activity,PRKX (human),94.5%
same,residual activity,MAP4K4 (human),6.63%
same,residual activity,FGFR4 (human),92.8%
same,residual activity,MINK1 (human),9.87%
same,residual activity,STK10 (human),70.3%
same,residual activity,SRMS (human),93.7%
same,residual activity,CDK1 CCNA2 (human),88.2%
same,residual activity,PIM2 (human),108%
same,residual activity,ACVR1 (human),123%
